# Measurements: US20140323504A1, “Pyrazolo[4,3-c]Pyridine Derivatives As Kinase Inhibitors” (Cellzome Limited, priority 2011, published 2014)
# “And” between values parts separate entries of the source, which are not always exact repeats. Equal entries are not always repeated.
# What was measured:
# [1] = test system: STAT5 phosphorylation in IL-2 stimulated YT cells; test: Cell assay with washout of compounds (pSTAT5, YT cells, MSD); assay type: cell-based, human
# Experimental: This time course experiment allows determination as to whether the pharmacological effect of the tested compounds persists over time even after the compound is removed from the cell samples.
# Human YT cells were grown as described above. Cells were harvested by centrifugation and resuspended in RPMI0.5% heat-inactivated FBS. 3×10^5 cells were seeded in 60 μl per well in a round-bottomed 96 well plate (BD-Falcon, 353077).
# Test compounds were dissolved in DMSO and a 1:3 dilution series (9 steps) was prepared. To generate a dose response curve, 30 μl of fourfold concentrated compound in 4% DMSO/RPMI/0.5% FBS were added to each cell sample in the 96 well plate resulting in a final DMSO concentration of 1% DMSO. Cells were incubated for one hour in a humidified incubator (37° C., 5% CO2). After incubation cells were washed twice by centrifugation and replacement of media (RPMI/0.5% FBS), with the exception of the time 0 plate. Washed cells were incubated for 30 min, 1, 2 and 4 hours in a humidified incubator (37° C., 5% CO2) prior to stimulation with IL-2. To each well 30 μl of a fourfold concentrated IL-2 solution (Recombinant human IL-2, Peprotech 200-02; 120 nM solution in RPMI) was added and incubated for 30 minutes at room temperature. Cells were lysed by adding 30 μl of 5× lysis buffer (MSD lysis buffer) and incubated for 10 minutes at 4° C. with gentle shaking.
# The effect of compounds on STATS phosphorylation was determined in lysates using the MSD MULTI-SPOT® 96 4-spot phosphor-STAT5a,b whole cell lysatc kit (MesoScale Discovery, K150IGD-3) according to the manufacturer's protocol. Data were analysed in BioAssay using the nonlinear regression for a sigmoidal dose-response with a variable slope and IC50 values were determined.
# [2] = target: T1, JAK3 (Homo sapiens, UniProt P52333); test: Kinobeads assay with antibody detection, JAK3; assay type: binding; parameters: endogenous in cells; host or cells: mixed Molt4/Ramos cell lysate (1:2); settings: mixed Molt4/Ramos lysate, read-out: JAK3 inhibition value (IC50)
# T1 sequence (P52333 1-1124): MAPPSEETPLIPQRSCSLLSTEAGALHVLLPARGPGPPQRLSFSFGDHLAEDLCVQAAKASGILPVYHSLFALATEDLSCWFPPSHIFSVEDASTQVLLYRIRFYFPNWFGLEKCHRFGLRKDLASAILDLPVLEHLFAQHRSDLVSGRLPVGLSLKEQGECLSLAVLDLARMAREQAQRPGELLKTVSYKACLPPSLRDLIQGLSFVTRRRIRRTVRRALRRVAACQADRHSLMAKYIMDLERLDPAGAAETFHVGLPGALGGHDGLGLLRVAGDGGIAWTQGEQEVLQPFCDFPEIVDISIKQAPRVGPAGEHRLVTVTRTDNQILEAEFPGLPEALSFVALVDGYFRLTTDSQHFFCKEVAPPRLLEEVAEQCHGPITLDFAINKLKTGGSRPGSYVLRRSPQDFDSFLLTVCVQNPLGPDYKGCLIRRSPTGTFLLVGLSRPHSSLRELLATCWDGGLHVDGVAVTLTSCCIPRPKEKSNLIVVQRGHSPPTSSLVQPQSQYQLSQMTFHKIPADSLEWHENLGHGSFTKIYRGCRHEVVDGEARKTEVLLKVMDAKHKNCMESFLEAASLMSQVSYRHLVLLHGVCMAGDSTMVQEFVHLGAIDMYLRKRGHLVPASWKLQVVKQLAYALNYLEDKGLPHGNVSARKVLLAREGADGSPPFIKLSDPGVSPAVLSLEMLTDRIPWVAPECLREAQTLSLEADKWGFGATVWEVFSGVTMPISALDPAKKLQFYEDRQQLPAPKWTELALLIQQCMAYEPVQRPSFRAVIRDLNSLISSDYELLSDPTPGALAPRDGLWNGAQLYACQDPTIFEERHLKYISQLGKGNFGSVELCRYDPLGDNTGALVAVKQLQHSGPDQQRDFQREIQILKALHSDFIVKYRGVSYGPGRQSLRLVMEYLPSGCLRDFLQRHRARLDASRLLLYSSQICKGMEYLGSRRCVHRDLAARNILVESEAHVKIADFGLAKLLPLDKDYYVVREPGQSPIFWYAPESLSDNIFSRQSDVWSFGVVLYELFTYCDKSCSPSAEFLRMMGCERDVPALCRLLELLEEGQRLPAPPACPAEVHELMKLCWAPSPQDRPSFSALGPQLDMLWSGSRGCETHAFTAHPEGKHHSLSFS
# Experimental: (§1) The compounds of the present invention as described in the previous examples were tested in a Kinobeads™ assay as described for ZAP-70 (WO-A 2007/137867). Briefly, test compounds (at various concentrations) and the affinity matrix with the immobilized aminopyrido-pyrimidine ligand 24 were added to cell lysate aliquots and allowed to bind to the proteins in the lysate sample. After the incubation time the beads with captured proteins were separated from the lysate. Bound proteins were then eluted and the presence of JAK1; JAK2, JAK3 and TYK2 was detected and quantified using specific antibodies in a dot blot procedure and the Odyssey infrared detection system. Dose response curves for individual kinases were generated and IC50 values calculated. Kinobeads™ assays for ZAP-70 (WO-A 2007/137867) and for kinase selectivity profiling (WO-A 2006/134056) have been previously described.
# (§2) 5×DP buffer: 250 mM Tris-HCl pH 7.4, 25% Glycerol, 7.5 mM MgCl2, 750 mM NaCl, 5 mM Na3VO4; filter the 5×DP buffer through a 0.22 μm filter and store in aliquot at −80° C. The 5×DP buffer is diluted with H2O to 1×DP buffer containing 1 mM DTT and 25 mM NaF.
# (§3) Stock solutions of test compounds were prepared in DMSO. In a 96 well plate 30 μL solution of diluted test compounds at 5 mM in DMSO were prepared. Starting with this solution a 1:3 dilution series (9 steps) was prepared. For control experiments (no test compound) a buffer containing 2% DMSO was used.
# (§4) Molt4 cells (ATCC catalogue number CRL-1582) and Ramos cells (ATCC catalogue number CRL-1596) were grown in 1 L Spinner flasks (Integra Biosciences, #182101) in suspension in RPMI 1640 medium (Invitrogen, #21875-034) supplemented with 10% Fetal Bovine Serum (Invitrogen) at a density between 0.15×10^6 and 1.2×10^6 cells/mL. Cells were harvested by centrifugation, washed once with 1×PBS buffer (Invitrogen, #14190-094) and cell pellets were frozen in liquid nitrogen and subsequently stored at −80° C. Cells were homogenized in a Potter S homogenizer in lysis buffer: 50 mM Tris-HCl, 0.8% NP40, 5% glycerol, 150 mM NaCl, 1.5 mM MgCl2, 25 mM NaF, 1 mM sodium vanadate, 1 mM DTT, pH 7.5. One complete EDTA-free tablet (protease inhibitor cocktail, Roche Diagnostics, 1873580) per 25 mL buffer was added. The material was dounced 10 times using a mechanized POTTER S, transferred to 50 mL falcon tubes, incubated for 30 minutes on ice and spun down for 10 minutes at 20,000 g at 4° C. (10,000 rpm in Sorvall SLA600, precooled). The supernatant was transferred to an ultracentrifuge (UZ)-polycarbonate tube (Beckmann, 355654) and spun for 1 hour at 100.000 g at 4° C. (33.500 rpm in Ti50.2, precooled). The supernatant was transferred again to a fresh 50 mL falcon tube, the protein concentration was determined by a Bradford assay (BioRad) and samples containing 50 mg of protein per aliquot were prepared. The samples were immediately used for experiments or frozen in liquid nitrogen and stored frozen at −80° C.
# (§5) Cell lysate (approximately 50 mg protein per plate) was thawed in a water bath at room temperature and then stored on ice. To the thawed cell lysate 1×DP 0.8% NP40 buffer containing protease inhibitors (1 tablet for 25 mL buffer; EDTA-free protease inhibitor cocktail; Roche. Diagnostics 1873580) was added in order to reach a final protein concentration of 10 mg/mL total protein. The diluted cell lysate was stored on ice. Mixed Molt4Ramos lysate was prepared by combining one volume of Molt4 lysate and two volumes of Ramos lysate (ratio 1:2).
# (§6) Plates were sealed and incubated for 3 hours in a cold room on a plate shaker (Heidolph tiramax 1000) at 750 rpm. Afterwards the plate was washed 3 times with 230 μL washing buffer (1×DP 0.4% NP40). The filter plate was placed on top of a collection plate (Greiner bio-one, PP-microplate 96 well V-shape, 65120) and the beads were then eluted with 20 μL of sample buffer (100 mM Tris, pH 7.4, 4% SDS, 0.00025% bromophenol blue, 20% glycerol, 50 mM DTT). […]
# [3] = target: T2, JAK1 (Homo sapiens, UniProt P23458); test: Kinobeads assay with antibody detection, JAK1; assay type: binding; settings: mixed Molt4/Ramos lysate, read-out: JAK1 inhibition value (IC50)
# T2 construct: endogenous in cells; host or cells: mixed Molt4/Ramos cell lysate (1:2)
# Experimental: as §1, §2, §3, §4, §5, §6
# [4] = target: T3, JAK2 (Homo sapiens, UniProt O60674); test: Kinobeads assay with antibody detection, JAK2; assay type: binding; settings: mixed Molt4/Ramos lysate, read-out: JAK2 inhibition value (IC50)
# T3 construct: endogenous in cells; host or cells: mixed Molt4/Ramos cell lysate (1:2)
# Experimental: as §1, §2, §3, §4, §5, §6
# [5] = target: T4, Tyk2 (Homo sapiens, UniProt P29597); test: Kinobeads assay with antibody detection, TYK2; assay type: binding; settings: mixed Molt4/Ramos lysate, read-out: Tyk2 inhibition value (IC50)
# T4 construct: endogenous in cells; host or cells: mixed Molt4/Ramos cell lysate (1:2)
# Experimental: as §1, §2, §3, §4, §5, §6
# [6] = test system: GVHD; settings: Cetkovic-Cvrlje and Ucken, 2004; cited from earlier work
# [7] = test system: NOD mouse model of type I diabetes; settings: cited from earlier work
# [8] = test system: animal model of organ transplantation; settings: Changelian et al., 2003; cited from earlier work
# [9] = IL-2 stimulated YT cells, 0 min (no wash)
# T2 sequence (P23458 whole entry): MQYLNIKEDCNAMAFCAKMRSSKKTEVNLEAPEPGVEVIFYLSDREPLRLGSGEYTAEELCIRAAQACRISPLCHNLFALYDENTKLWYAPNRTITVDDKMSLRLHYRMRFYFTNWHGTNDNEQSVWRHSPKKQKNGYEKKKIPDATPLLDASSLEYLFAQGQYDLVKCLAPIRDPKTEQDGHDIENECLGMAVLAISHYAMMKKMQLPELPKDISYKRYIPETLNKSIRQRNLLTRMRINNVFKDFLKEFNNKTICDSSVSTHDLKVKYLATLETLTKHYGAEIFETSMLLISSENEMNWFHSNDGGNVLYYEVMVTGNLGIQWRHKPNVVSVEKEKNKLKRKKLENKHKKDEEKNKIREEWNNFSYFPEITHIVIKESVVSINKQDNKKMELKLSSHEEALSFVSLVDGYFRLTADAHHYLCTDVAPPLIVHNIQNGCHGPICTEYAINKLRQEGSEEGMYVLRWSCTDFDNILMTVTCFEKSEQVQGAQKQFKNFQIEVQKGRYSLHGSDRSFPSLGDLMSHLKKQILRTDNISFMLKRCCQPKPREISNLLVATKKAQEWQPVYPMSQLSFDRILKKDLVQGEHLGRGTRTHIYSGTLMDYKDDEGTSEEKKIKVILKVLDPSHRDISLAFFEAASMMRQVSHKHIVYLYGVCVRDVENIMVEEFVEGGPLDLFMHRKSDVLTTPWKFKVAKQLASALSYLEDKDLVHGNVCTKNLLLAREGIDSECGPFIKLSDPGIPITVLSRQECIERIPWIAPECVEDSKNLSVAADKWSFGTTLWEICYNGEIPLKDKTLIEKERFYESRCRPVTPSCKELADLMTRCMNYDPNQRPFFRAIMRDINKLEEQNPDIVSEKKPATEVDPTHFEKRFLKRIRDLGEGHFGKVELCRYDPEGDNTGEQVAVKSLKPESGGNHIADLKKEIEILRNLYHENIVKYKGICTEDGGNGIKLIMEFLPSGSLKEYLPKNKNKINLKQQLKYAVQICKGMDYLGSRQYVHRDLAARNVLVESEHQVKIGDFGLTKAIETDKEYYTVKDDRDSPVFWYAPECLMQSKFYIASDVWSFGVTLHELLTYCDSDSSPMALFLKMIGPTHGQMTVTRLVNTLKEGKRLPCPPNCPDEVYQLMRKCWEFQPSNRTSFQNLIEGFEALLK
# T3 sequence (O60674 whole entry): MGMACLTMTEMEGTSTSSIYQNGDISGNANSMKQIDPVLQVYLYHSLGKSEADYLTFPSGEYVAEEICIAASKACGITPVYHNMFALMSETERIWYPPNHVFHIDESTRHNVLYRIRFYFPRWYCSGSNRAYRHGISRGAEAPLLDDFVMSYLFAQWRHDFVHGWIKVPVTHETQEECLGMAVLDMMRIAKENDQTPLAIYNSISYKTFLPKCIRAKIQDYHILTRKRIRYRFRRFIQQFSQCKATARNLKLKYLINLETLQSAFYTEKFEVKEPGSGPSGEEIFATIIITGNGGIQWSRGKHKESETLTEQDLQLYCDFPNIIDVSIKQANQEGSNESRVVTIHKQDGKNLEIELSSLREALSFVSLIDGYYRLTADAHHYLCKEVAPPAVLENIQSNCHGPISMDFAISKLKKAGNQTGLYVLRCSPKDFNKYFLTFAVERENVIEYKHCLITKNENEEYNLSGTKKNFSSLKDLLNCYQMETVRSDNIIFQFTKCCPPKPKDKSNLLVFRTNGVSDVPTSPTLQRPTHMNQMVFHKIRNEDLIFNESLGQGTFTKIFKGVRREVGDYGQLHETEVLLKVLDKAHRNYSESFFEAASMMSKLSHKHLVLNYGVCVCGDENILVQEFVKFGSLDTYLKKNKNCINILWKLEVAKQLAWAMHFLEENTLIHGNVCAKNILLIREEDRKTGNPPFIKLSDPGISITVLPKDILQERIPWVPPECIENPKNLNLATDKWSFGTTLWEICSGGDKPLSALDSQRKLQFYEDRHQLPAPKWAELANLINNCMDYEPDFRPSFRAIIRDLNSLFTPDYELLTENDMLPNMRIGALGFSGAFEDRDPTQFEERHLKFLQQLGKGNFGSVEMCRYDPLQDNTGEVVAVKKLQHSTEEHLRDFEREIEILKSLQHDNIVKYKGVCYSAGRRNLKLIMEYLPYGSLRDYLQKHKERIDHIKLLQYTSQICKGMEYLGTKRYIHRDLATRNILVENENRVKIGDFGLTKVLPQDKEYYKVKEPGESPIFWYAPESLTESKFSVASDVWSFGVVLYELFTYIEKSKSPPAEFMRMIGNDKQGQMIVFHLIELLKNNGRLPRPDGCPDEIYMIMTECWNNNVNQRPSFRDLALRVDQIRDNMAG
# T4 sequence (P29597 whole entry): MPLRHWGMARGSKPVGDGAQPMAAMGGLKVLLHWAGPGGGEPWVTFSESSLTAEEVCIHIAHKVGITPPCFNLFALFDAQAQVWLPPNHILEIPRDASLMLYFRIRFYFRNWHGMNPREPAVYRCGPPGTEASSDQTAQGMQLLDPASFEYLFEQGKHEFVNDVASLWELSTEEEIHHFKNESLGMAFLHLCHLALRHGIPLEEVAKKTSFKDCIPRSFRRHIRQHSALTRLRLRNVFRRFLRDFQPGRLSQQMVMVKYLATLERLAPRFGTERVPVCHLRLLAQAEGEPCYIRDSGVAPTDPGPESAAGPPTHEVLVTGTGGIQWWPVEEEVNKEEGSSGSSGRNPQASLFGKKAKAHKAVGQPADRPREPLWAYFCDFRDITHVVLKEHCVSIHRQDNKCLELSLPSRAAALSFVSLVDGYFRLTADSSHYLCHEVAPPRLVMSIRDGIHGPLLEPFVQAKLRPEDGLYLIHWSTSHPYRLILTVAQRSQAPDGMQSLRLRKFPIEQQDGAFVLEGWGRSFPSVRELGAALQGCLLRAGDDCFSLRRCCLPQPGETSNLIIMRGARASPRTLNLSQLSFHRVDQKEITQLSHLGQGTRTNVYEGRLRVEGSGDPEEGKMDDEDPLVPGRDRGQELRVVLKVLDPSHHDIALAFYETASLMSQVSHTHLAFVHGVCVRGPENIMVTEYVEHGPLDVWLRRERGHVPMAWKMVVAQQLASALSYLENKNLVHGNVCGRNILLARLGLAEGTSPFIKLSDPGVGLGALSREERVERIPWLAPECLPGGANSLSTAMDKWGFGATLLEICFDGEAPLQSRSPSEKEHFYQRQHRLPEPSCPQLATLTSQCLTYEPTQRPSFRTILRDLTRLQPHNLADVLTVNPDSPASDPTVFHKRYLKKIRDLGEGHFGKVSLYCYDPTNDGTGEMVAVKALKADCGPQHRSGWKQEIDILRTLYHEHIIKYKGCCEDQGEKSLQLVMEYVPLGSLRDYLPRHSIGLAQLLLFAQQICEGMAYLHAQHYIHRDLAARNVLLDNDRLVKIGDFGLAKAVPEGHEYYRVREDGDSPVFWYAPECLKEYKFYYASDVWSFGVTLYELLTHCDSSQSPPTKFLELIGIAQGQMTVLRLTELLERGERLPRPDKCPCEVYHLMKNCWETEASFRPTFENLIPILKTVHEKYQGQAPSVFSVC
IC50 [2],IC50 [3],IC50 [4],IC50 [5],SMILES,other results
–,–,–,–,"Cn1cc(Nc2ncc3cnn(Cc4cccc(NC5COC5)c4)c3n2)cn1 [Reference example 1, N-(1-methyl-1H-pyrazol-4-yl)-1-(3-(oxetan-3-ylamino)benzyl)-1H-pyrazolo[3,4-d]pyrimidin-6-amine]","IC50 ([1]; Homo sapiens, 0 h, IL-2 stimulated YT cells, 0 min (no wash), read-out: pSTAT5 inhibition pIC50, 0 min (no wash) (converted)): 1.58 µM; pSTAT5 inhibition pIC50, 0 min (no wash) [1, 9]: 5.7; pSTAT5 inhibition pIC50, 30 min after washout ([1]; IL-2 stimulated YT cells): inactive; pSTAT5 inhibition pIC50, 1 hour after washout ([1]; IL-2 stimulated YT cells): inactive; pSTAT5 inhibition pIC50, 2 hours after washout ([1]; IL-2 stimulated YT cells): inactive; pSTAT5 inhibition pIC50, 4 hours after washout ([1]; IL-2 stimulated YT cells): inactive"
0.005 µM,> 10 µM,> 10 µM,> 10 µM,"C=CC(=O)Nc1cccc(Cn2ncc3cnc(Nc4ccn(C)n4)cc32)c1 [Example 8, N-(3-((6-((1-Methyl-1H-pyrazol-3-yl)amino)-1H-pyrazolo[4,3-c]pyridin-1-yl)methyl)phenyl)acrylamide]",–
0.001 µM,5.37 µM,> 10 µM,5.08 µM,"C=CC(=O)Nc1cccc(Cn2ncc3cnc(Nc4cnn(C)c4)cc32)c1 [Example 10, N-(3-((6-((1-Methyl-1H-pyrazol-4-yl)amino)-1H-pyrazolo[4,3-c]pyridin-1-yl)methyl)phenyl)acrylamide]",–
0.003 µM,9.42 µM,> 10 µM,8.08 µM,"C=CC(=O)Nc1cccc(Cn2ccc3cnc(Nc4cnn(C)c4)nc32)c1 [Example 9, N-(3-((2-((1-Methyl-1H-pyrazol-4-yl)amino)-7H-pyrrolo[2,3-d]pyrimidin-7-yl)methyl)phenyl)acrylamide]",–
–,–,–,–,COc1cc2ncnc(Nc3ccc(O)cc3)c2cc1OC [JANEX-1],severity of GVHD [6]: attenuate the severity of GVHD; spontaneous autoimmune diabetes development [7]: prevent spontaneous autoimmune diabetes development
–,–,–,–,"C[C@@H]1CCN(C(=O)CC#N)C[C@@H]1N(C)c1ncnc2[nH]ccc12 [Reference example 3, CP 690,550]","efficacy in organ transplantation model [8]: show efficacy in an animal model of organ transplantation; pSTAT5 inhibition pIC50, 0 min (no wash) [1, 9]: 7.6 and 7.8; pSTAT5 inhibition pIC50, 30 min after washout ([1]; IL-2 stimulated YT cells): 5.1; pSTAT5 inhibition pIC50, 1 hour after washout ([1]; IL-2 stimulated YT cells): inactive; pSTAT5 inhibition pIC50, 2 hours after washout ([1]; IL-2 stimulated YT cells): inactive; pSTAT5 inhibition pIC50, 4 hours after washout ([1]; IL-2 stimulated YT cells): Inactive; activity 30 minutes after the washing of cells ([1]; YT cells, 30 minutes after washing): significant drop in activity; inhibition activity 1 hour after washing ([1]; YT cells, 1 hour after washing): completely lost"
1.31 µM,> 10 µM,> 10 µM,> 10 µM,"CC(C)=CC(=O)Nc1cccc(Cn2ncc3cnc(Nc4cnn(C)c4)nc32)c1 [Example 6, 3-Methyl-N-(3-((6-((1-methyl-1H-pyrazol-4-yl)amino)-1H-pyrazolo[3,4-d]pyrimidin-1-yl)methyl)phenyl)but-2-enamide]",–
